Where two headings read alike, the source gives them in different places. Peptide text beside a SMILES is read from it.
Tests used:
hMC1-R [1] = target: T1, hMC1-R (Homo sapiens (Human), UniProt Q01726); assay: Competitive inhibition binding assay, human recombinant MC1-R
Experimental: A competitive inhibition binding assay is performed using membrane homogenates prepared from HEK-293 cells that express recombinant hMC4-R, hMC3-R, or hMC5-R, and from B-16 mouse melanoma cells (containing endogenous MC1-R). In some instances, HEK-293 cells that express recombinant hMC1-R were employed. In the examples that follow, all MC3-R, MC4-R and MC5-R values are for human recombinant receptors. […] Membrane homogenates were incubated with 0.2 nM (for hMC4-R) 0.4 nM (for MC3-R and MC5-R) or 0.1 nM (for mouse B16 MC1-R or hMC1-R) [I^125]-NDP-α-MSH (Perkin Elmer) and increasing concentrations of test peptides of the present invention in buffer containing 25 mM HEPES buffer (pH 7.5) with 100 mM NaCl, 2 mM CaCl2, 2 mM MgCl2, 0.3 mM 1,10-phenanthroline, and 0.2% bovine serum albumin. After incubation for 60 minutes at 37° C., the assay mixture was filtered and the membranes washed three times with ice-cold buffer. Filters were dried and counted in a gamma counter for bound radioactivity. […] Maximal specific binding (100%) was defined as the difference in radioactivity (cpm) bound to cell membranes in the absence and presence of 1 μM NDP-α-MSH. […] Each assay was conducted in triplicate and the actual mean values are described, with results less than 0% reported as 0%. Ki values for test peptides of the present invention were determined using Graph-Pad Prism® curve-fitting software.

hMC4-R [2] = target: T2, hMC4-R (Homo sapiens (Human), UniProt P32245); assay: Assay for agonist activity: cAMP accumulation in HEK-293 cells that express hMC4-R; details: for functional status at MC4-R (agonist / partial agonist): agonist = intrinsic activity 70% or higher, partial agonist 10-70%
T2 sequence (P32245 whole entry): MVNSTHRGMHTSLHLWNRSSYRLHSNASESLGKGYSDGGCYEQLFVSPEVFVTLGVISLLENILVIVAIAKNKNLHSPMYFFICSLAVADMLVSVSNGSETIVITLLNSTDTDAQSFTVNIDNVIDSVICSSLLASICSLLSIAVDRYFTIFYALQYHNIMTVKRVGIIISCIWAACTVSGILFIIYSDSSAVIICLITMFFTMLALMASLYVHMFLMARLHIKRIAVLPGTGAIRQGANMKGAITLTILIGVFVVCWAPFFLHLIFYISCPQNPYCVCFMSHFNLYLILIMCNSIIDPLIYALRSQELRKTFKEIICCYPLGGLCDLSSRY
Experimental: By “intrinsic activity” is meant the maximal functional activity achievable by a compound in a specified melanocortin receptor expressing cell system, such as the maximal stimulation of adenylyl cyclase.
Accumulation of intracellular cAMP was examined as a measure of the ability of the peptides of the present invention to elicit a functional response in HEK-293 cells that express MC4-R. Confluent HEK-293 cells that express recombinant hMC4-R were detached from culture plates by incubation in enzyme-free cell dissociation buffer. Dispersed cells were suspended in Earle's Balanced Salt Solution containing 10 mM HEPES (pH 7.5), 1 mM MgCl2, 1 mM glutamine, 0.5% albumin and 0.3 mM 3-isobutyl-1-methyl-xanthine (IBMX), a phosphodiesterase inhibitor. […] Cells were exposed for 15 minutes at 37° C. to peptides of the present invention dissolved in DMSO (final DMSO concentration of 1%) at a concentration range of 0.05-5000 nM in a total assay volume of 200 μL. […] Data analysis was performed by nonlinear regression analysis with Graph-Pad Prism® software. The maximum efficacies of the test peptides of the present invention were compared to that achieved by the reference melanocortin agonist NDP-αMSH.

hMC1-R [3] = target: T1, hMC1-R; assay: Functional assay (EC50 and intrinsic activity) at hMC1-R; format: cell-based
hMC4-R [4] = target: T2, hMC4-R; assay: Competitive inhibition binding assay using [I125]-NDP-α-MSH, hMC4-R membranes
In short: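 Membranes from HEK-293 cells expressing recombinant hMC1-R or hMC4-R incubated with 0.1 nM (MC1-R) or 0.2 nM (MC4-R) [I125]-NDP-α-MSH and increasing peptide concentrations in HEPES pH 7.5, 60 min at 37 °C; filtered, gamma counted.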

hMC4-R [5] = target: T2, hMC4-R; assay: Competitive binding assay using Eu-NDP-α-MSH (TRF), hMC4-R membranes; details: averaged; Eu-NDP-α-MSH (values marked *); read-out: MC4-R Ki
Experimental: Alternatively, a competitive inhibition binding assay was performed employing Eu-NDP-α-MSH (PerkinElmer Life Sciences catalog No. AD0225) with determination by time-resolved fluorometry (TRF) of the lanthanide chelate. […] After incubation for 90 minutes at 37° C., the reaction was stopped by filtration over AcroWell 96-well filter plates (Pall Life Sciences). The filter plates were washed 4 times with 200 μL of ice-cold phosphate-buffered saline. DELFIA Enhancement solution (PerkinElmer Life Sciences) was added to each well. […] Each assay was conducted in duplicate and mean values were utilized. Ki values were determined by curve-fitting with Graph-Pad Prism® software using a one-site fixed-slope competition binding model.

Male Sprague-Dawley rats = assay: Rat feeding studies: food intake and body weight change; format: in vivo; details: for decrease in food consumption compared to control: rats
Experimental: Change in food intake and body weight was evaluated for selected peptides administered by intravenous (IV) or subcutaneous injection routes. Male Sprague-Dawley rats were obtained from Hilltop Lab Animals, Inc. (Scottsdale, Pa.) or other vendors. Animals were individually housed in conventional polystyrene hanging cages and maintained on a controlled 12 hour on/off light cycle. Water and pelleted food was provided ad libitum. The rats were dosed IV with vehicle or selected peptides (0.3 to 1.0 mg/kg), or dosed subcutaneously with vehicle or selected peptides (doses up to 30 mg/kg). […] The changes in body weight and food intake for the 48 hour and 72 hour periods after dosing can also be measured to determine reversal of changes in body weight and food intake effects back to baseline levels.

hMC3-R = hMC3-R (Homo sapiens (Human), UniProt P41968); assay: Competitive binding using Eu-labeled NDP-α-MSH, MC3-R
hMC3-R, sequence (P41968 whole entry): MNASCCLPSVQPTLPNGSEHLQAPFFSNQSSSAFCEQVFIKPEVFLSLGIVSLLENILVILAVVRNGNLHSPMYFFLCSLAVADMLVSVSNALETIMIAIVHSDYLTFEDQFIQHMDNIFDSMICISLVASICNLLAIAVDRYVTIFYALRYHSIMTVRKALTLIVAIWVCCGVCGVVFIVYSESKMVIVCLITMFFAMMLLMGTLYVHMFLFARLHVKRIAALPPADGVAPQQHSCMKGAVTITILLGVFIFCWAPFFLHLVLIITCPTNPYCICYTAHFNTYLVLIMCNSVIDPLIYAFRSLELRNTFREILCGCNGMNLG
Experimental: A competitive inhibition binding assay is performed using membrane homogenates prepared from HEK-293 cells that express recombinant hMC4-R, hMC3-R, or hMC5-R, and from B-16 mouse melanoma cells (containing endogenous MC1-R). In some instances, HEK-293 cells that express recombinant hMC1-R were employed. In the examples that follow, all MC3-R, MC4-R and MC5-R values are for human recombinant receptors. MC1-R values are for B-16 mouse melanoma cells, unless the heading is “hMC1-R”, in which case the value is for human recombinant MC1-R. Assays were performed in 96 well GF/B Millipore multiscreen filtration plates (MAFB NOB10) pre-coated with 0.5% bovine serum albumin (Fraction V). […] Filters were dried and counted in a gamma counter for bound radioactivity. […] Maximal specific binding (100%) was defined as the difference in radioactivity (cpm) bound to cell membranes in the absence and presence of 1 μM NDP-α-MSH. […] Ki values for test peptides of the present invention were determined using Graph-Pad Prism® curve-fitting software.
Alternatively, a competitive inhibition binding assay was performed employing Eu-NDP-α-MSH (PerkinElmer Life Sciences catalog No. AD0225) with determination by time-resolved fluorometry (TRF) of the lanthanide chelate. […] The plates were incubated on a shaker for 15 minutes and read at 340 nm excitation and 615 nm emission wavelengths. […]

[6] = target: MC1-R (B-16 mouse melanoma cells) (Mus musculus (Mouse), UniProt Q01727); assay: Competitive binding using Eu-labeled NDP-α-MSH, MC1-R
MC1-R (B-16 mouse melanoma cells), sequence (Q01727 whole entry): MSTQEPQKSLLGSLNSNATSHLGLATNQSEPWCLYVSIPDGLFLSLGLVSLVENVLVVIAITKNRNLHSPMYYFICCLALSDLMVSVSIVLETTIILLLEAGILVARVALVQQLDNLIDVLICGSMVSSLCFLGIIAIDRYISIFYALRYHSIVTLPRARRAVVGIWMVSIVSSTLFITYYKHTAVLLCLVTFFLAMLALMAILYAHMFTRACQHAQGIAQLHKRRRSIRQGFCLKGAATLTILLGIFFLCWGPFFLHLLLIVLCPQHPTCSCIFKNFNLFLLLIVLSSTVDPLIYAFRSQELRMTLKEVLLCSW
Experimental: A competitive inhibition binding assay is performed using membrane homogenates prepared from HEK-293 cells that express recombinant hMC4-R, hMC3-R, or hMC5-R, and from B-16 mouse melanoma cells (containing endogenous MC1-R). In some instances, HEK-293 cells that express recombinant hMC1-R were employed. In the examples that follow, all MC3-R, MC4-R and MC5-R values are for human recombinant receptors. MC1-R values are for B-16 mouse melanoma cells, unless the heading is “hMC1-R”, in which case the value is for human recombinant MC1-R. Assays were performed in 96 well GF/B Millipore multiscreen filtration plates (MAFB NOB10) pre-coated with 0.5% bovine serum albumin (Fraction V). Membrane homogenates were incubated with 0.2 nM (for hMC4-R) 0.4 nM (for MC3-R and MC5-R) or 0.1 nM (for mouse B16 MC1-R or hMC1-R) [I^125]-NDP-α-MSH (Perkin Elmer) and increasing concentrations of test peptides of the present invention in buffer containing 25 mM HEPES buffer (pH 7.5) with 100 mM NaCl, 2 mM CaCl2, 2 mM MgCl2, 0.3 mM 1,10-phenanthroline, and 0.2% bovine serum albumin. After incubation for 60 minutes at 37° C., the assay mixture was filtered and the membranes washed three times with ice-cold buffer. Filters were dried and counted in a gamma counter for bound radioactivity. […] Maximal specific binding (100%) was defined as the difference in radioactivity (cpm) bound to cell membranes in the absence and presence of 1 μM NDP-α-MSH. […] Ki values for test peptides of the present invention were determined using Graph-Pad Prism® curve-fitting software.
Alternatively, a competitive inhibition binding assay was performed employing Eu-NDP-α-MSH (PerkinElmer Life Sciences catalog No. AD0225) with determination by time-resolved fluorometry (TRF) of the lanthanide chelate. […] The plates were incubated on a shaker for 15 minutes and read at 340 nm excitation and 615 nm emission wavelengths. […] Ki values were determined by curve-fitting with Graph-Pad Prism® software using a one-site fixed-slope competition binding model.

[7] = averaged, [I125]-NDP-α-MSH (values not marked *), read-out: MC4-R Ki

T1 sequence (Q01726 whole entry): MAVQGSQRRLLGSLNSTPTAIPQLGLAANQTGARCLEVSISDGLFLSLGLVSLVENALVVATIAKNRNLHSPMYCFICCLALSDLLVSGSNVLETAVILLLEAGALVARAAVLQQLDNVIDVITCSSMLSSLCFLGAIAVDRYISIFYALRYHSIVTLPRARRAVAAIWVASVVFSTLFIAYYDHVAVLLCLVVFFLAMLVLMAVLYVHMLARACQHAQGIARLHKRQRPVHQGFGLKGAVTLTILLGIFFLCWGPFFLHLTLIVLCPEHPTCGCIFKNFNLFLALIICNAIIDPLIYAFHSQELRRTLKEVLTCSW

Compound | Ki (hMC1-R [1]) | EC50 (hMC4-R [2]) | EC50 (hMC1-R [3]) | Ki (hMC4-R [4]; [7]) | Ki (hMC4-R [4]; read-out: hMC4-R (Ki)) | functional status at MC4-R (agonist / partial agonist) (hMC4-R [2]) | Ki (hMC4-R [5]) | other results
CC(=O)N[C@@H](CCCNC(=N)N)C(=O)N[C@H]1CCCCNC(=O)C[C@@H](C(N)=O)NC(=O)[C@H](Cc2ccc3ccccc3c2)NC(=O)[C@H](CCCNC(=N)N)NC(=O)[C@@H](Cc2ccccc2)NC(=O)[C@H](CC(N)=O)NC1=O [compound 162, Ac-Arg-cyclo(Lys-Asn- D-Phe-Arg-Nal 2-Asp)- NH2] (HELM PEPTIDE1{[ac].R.K.N.[dF].R.[O=C([C@H](Cc1ccc2ccccc2c1)N[*:1])[*:2]].D.[am]}$PEPTIDE1,PEPTIDE1,3:R3-8:R3$$$V2.0) | 255 nM | 0.85 nM | 22 nM | 5 nM | 5 nM | – | – | –
CC(=O)N[C@@H](CCCNC(=N)N)C(=O)N[C@H]1CCNC(=O)CCC[C@@H](C(N)=O)NC(=O)[C@H](Cc2c[nH]c3ccccc23)NC(=O)[C@H](CCCNC(=N)N)NC(=O)[C@@H](Cc2ccccc2)NC(=O)[C@H](CCN)NC1=O [compound 129, Ac-Arg-cyclo(Dab-Dab- D-Phe-Arg-Trp-hGlu)- NH2] | – | 0.065 nM | – | – | – | agonist | 4 nM | –
CC(=O)N[C@@H](CCCNC(=N)N)C(=O)N[C@H]1CCC(=O)NCCC[C@@H](C(N)=O)NC(=O)[C@H](Cc2c[nH]c3ccccc23)NC(=O)[C@H](CCCNC(=N)N)NC(=O)[C@@H](Cc2ccccc2)NC(=O)[C@H](CC(N)=O)NC1=O [compound 161, Ac-Arg-cyclo(Glu-Asn- D-Phe-Arg-Trp-Orn)- NH2] | 155 nM | – | 13 nM | – | – | – | – | EC50 (hMC4-R [2]; read-out: hMC4-R EC50): 0.413 nM
CC(=O)N[C@@H](CCCNC(=N)N)C(=O)N[C@H]1CCCC(=O)NCC[C@@H](C(N)=O)NC(=O)[C@H](Cc2c[nH]c3ccccc23)NC(=O)[C@H](CCCNC(=N)N)NC(=O)[C@@H](Cc2ccccc2)NC(=O)[C@H](CCN)NC1=O [compound 127, Ac-Arg-cyclo(hGlu-Dab- D-Phe-Arg-Trp-Dab)- NH2] | – | 0.06 nM | – | – | – | agonist | 2 nM | –
CC(=O)N[C@@H](CCCNC(=N)N)C(=O)N[C@H]1CC(=O)NCCCC[C@@H](C(N)=O)NC(=O)[C@H](Cc2c[nH]c3ccccc23)NC(=O)[C@H](CCCNC(=N)N)NC(=O)[C@@H](Cc2ccccc2)NC(=O)[C@H](C(C)C)NC1=O [Peptide No. 16, Ac-Arg-cyclo(Asp-Val- D-Phe-Arg-Trp-Lys)- NH2] | – | – | – | – | – | partial agonist | – | food intake and rate of change in body weight (Male Sprague-Dawley rats; rat feeding studies, bremelanotide as positive control): reduce food intake and decrease the rate of change in body weight; decrease in food consumption compared to control (Male Sprague-Dawley rats; 0.3 mg/kg, 0-2 and 0-4 hour periods): statistically significant; decrease in food consumption compared to control (Male Sprague-Dawley rats; 1 mg/kg, 0-2, 0-4 and 0-20 hour periods): statistically significant; Ki (hMC3-R): 1050 nM; Ki [6]: 323 nM
CC(=O)N[C@@H](CCCNC(=N)N)C(=O)N[C@H]1CCNC(=O)CCC[C@@H](C(N)=O)NC(=O)[C@H](Cc2c[nH]c3ccccc23)NC(=O)[C@H](CCCNC(=N)N)NC(=O)[C@@H](Cc2ccccc2)NC(=O)[C@H](CCC(N)=O)NC1=O [compound 159, Ac-Arg-cyclo(Dab-Gln- D-Phe-Arg-Trp-hGlu)- NH2] | 133 nM | 0.825 nM | 26 nM | 4 nM | 4 nM | – | – | –
CC(=O)N[C@@H](CCCNC(=N)N)C(=O)N[C@H]1CCCC(=O)NCC[C@@H](C(N)=O)NC(=O)[C@H](Cc2c[nH]c3ccccc23)NC(=O)[C@H](CCCNC(=N)N)NC(=O)[C@@H](Cc2ccccc2)NC(=O)[C@H](CC(N)=O)NC1=O [compound 160, Ac-Arg-cyclo(hGlu-Asn- D-Phe-Arg-Trp-Dab)- NH2] (HELM PEPTIDE1{[ac].R.[O=C([C@H](CCCC(=O)[*:3])N[*:1])[*:2]].N.[dF].R.W.[Dab].[am]}$PEPTIDE1,PEPTIDE1,3:R3-8:R3$$$V2.0) | 295 nM | 0.245 nM | – | 8 nM | 8 nM | – | – | –
CC(=O)N[C@H](CCCNC(=N)N)C(=O)N[C@H]1CCCNC(=O)CC[C@@H](C(N)=O)NC(=O)[C@H](Cc2c[nH]c3ccccc23)NC(=O)[C@H](CCCNC(=N)N)NC(=O)[C@@H](Cc2ccccc2)NC(=O)[C@H](CC(N)=O)NC1=O [compound 156, Ac-D-Arg-cyclo(Orn- Asn-D-Phe-Arg-Trp- Glu)-NH2] | 840 nM | – | 80 nM | – | – | – | – | –
CC(=O)N[C@@H](CCCNC(=N)N)C(=O)N[C@H]1CCCC(=O)NCC[C@@H](C(N)=O)NC(=O)[C@H](Cc2c[nH]c3ccccc23)NC(=O)[C@H](CCCNC(=N)N)NC(=O)[C@@H](Cc2ccccc2)NC(=O)[C@H](Cc2c[nH]cn2)NC1=O [compound 126, Ac-Arg-cyclo(hGlu-His- D-Phe-Arg-Trp-Dab)- NH2] | – | 0.047 nM | – | – | – | agonist | 1 nM | –

Reference: US8846601B2, “Melanocortin receptor-specific peptides” (Palatin Technologies, Inc., priority 2009, dated 2014)
